Measured values taken from ChEMBL document CHEMBL4428091, “Design and optimization of (3-aryl-1H-indazol-6-yl)spiro[cyclopropane-1,3'-indolin]-2'-ones as potent PLK4 inhibitors with oral antitumor efficacy” (Bioorg Med Chem Lett, 2016).

What was measured:
HCC1954 = experiment: Growth inhibition of human HCC1954; assay type: functional
MCF7 = experiment: Growth inhibition of human MCF7; assay type: functional
[1] = Lipophilicity, log D of the compound at pH 7.4; assay type: physicochemical; details: buffer
[2] = target: T1, Receptor-type tyrosine-protein kinase FLT3 (Homo sapiens, UniProt P36888); experiment: Inhibition of FLT3 (unknown origin)
T1 sequence (P36888 whole entry): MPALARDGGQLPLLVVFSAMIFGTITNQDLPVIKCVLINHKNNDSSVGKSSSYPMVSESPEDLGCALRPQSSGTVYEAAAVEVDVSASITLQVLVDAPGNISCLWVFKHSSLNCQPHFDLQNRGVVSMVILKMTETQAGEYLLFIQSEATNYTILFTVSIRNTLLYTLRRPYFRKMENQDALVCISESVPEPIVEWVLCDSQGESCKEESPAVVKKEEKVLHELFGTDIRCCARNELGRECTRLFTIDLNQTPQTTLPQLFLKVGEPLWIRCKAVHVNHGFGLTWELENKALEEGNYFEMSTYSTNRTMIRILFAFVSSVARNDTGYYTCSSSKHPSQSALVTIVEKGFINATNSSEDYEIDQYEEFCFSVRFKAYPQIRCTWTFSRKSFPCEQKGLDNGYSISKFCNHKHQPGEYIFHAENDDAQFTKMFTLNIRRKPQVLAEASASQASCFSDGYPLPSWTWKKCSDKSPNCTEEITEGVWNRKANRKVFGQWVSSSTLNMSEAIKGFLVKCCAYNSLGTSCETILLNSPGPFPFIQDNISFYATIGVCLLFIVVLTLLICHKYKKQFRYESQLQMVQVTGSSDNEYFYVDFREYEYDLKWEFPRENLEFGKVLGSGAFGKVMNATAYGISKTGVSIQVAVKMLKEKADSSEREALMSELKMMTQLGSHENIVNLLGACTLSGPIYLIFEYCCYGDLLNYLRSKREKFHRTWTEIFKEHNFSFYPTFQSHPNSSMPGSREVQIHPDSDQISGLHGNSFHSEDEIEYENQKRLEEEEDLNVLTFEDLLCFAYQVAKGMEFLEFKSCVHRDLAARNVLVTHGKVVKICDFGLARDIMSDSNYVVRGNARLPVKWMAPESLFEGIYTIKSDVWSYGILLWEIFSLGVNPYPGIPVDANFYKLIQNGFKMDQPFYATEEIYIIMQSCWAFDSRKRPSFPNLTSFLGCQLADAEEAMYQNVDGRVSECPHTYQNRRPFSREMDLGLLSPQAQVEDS

MDA-MB-468 [3] = experiment: Growth inhibition of human MDA-MB-468 cells; assay type: functional
[4] = Dissociation constant, pKa of the compound; assay type: physicochemical
[5] = target: T2, Serine/threonine-protein kinase PLK4 (Homo sapiens, UniProt O00444); experiment: Inhibition of PLK4 (unknown origin)
T2 sequence (O00444 whole entry): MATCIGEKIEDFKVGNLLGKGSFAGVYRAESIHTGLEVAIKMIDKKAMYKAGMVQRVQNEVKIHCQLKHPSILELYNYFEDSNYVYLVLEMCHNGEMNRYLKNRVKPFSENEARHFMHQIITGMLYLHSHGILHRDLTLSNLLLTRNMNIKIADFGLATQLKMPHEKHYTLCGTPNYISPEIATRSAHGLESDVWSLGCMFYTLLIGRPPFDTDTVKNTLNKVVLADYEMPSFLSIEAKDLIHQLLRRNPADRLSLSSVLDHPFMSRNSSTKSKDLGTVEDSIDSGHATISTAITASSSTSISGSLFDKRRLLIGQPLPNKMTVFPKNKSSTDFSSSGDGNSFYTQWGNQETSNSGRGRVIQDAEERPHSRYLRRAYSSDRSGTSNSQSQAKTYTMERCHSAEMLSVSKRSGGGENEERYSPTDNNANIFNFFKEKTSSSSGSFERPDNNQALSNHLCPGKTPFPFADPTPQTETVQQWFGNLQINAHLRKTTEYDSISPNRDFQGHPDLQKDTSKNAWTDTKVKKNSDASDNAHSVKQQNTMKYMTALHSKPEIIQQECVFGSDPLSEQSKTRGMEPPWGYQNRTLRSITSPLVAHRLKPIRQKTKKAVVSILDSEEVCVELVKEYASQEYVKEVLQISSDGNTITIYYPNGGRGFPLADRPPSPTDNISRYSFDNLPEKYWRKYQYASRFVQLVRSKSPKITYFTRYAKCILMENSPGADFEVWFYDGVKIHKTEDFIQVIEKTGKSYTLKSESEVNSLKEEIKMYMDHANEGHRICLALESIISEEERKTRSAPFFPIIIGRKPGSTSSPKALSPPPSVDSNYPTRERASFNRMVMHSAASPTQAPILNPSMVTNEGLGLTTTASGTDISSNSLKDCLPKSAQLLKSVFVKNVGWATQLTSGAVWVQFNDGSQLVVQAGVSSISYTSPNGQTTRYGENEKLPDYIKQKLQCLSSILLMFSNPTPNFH

CYP3A4 = CYP3A4 (Homo sapiens, UniProt P08684); experiment: Inhibition of CYP3A4 (unknown origin) at 1 uM; assay type: ADME
Sequence of CYP3A4 (P08684 whole entry): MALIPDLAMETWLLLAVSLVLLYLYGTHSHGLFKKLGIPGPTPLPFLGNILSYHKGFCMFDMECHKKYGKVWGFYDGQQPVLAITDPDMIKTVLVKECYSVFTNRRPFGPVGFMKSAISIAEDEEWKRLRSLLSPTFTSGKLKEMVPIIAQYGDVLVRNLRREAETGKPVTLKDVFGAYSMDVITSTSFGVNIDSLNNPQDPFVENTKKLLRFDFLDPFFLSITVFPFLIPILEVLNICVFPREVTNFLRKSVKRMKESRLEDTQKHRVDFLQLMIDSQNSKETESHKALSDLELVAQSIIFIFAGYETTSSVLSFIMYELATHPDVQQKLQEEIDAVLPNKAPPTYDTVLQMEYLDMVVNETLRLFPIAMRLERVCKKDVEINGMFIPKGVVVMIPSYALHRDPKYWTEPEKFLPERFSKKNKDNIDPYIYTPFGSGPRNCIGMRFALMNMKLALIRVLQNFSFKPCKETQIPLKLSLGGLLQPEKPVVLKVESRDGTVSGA

[6] = Clearance in rat at 1 mg/kg, iv; assay type: ADME, organism-based; details: in vivo
[7] = Half life in mouse microsomes; assay type: ADME, Microsome
CYP2C19 = CYP2C19 (Homo sapiens, UniProt P33261); experiment: Inhibition of CYP2C19 (unknown origin) at 1 uM; assay type: ADME
Sequence of CYP2C19 (P33261 whole entry): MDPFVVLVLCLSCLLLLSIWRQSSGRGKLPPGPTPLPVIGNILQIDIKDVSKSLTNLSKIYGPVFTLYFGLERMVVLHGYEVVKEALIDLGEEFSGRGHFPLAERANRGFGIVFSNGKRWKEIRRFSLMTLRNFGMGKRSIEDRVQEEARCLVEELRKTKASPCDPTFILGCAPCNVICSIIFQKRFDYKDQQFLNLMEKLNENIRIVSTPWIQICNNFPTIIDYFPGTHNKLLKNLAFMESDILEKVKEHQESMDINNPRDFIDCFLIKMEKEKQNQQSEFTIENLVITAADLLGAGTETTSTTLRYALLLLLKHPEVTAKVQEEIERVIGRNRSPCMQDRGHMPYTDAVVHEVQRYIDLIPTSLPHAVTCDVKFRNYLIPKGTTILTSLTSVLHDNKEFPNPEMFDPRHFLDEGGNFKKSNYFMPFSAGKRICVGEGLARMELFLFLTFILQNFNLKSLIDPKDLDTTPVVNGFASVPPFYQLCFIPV

[8] = Half life in rat at 1 mg/kg, iv; assay type: ADME, organism-based; details: in vivo
[9] = Half life in human microsomes; assay type: ADME, Microsome
[10] = AUC in rat at 1 mg/kg, iv; assay type: ADME, organism-based; details: in vivo
[11] = AUC in rat at 5 mg/kg, po; assay type: ADME, organism-based; details: in vivo, read-out: AUC
[12] = Toxicity in mouse xenografted with human MDA-MB-468 cells assessed as body weight loss at 37.5 mg/kg, po qd for 21 days measured during compound dosing relative to vehicle control; assay type: organism-based; details: in vivo, 504 h
CYP2C9 = CYP2C9 (Homo sapiens, UniProt P11712); experiment: Inhibition of CYP2C9 (unknown origin) at 1 uM; assay type: ADME
Sequence of CYP2C9 (P11712 whole entry): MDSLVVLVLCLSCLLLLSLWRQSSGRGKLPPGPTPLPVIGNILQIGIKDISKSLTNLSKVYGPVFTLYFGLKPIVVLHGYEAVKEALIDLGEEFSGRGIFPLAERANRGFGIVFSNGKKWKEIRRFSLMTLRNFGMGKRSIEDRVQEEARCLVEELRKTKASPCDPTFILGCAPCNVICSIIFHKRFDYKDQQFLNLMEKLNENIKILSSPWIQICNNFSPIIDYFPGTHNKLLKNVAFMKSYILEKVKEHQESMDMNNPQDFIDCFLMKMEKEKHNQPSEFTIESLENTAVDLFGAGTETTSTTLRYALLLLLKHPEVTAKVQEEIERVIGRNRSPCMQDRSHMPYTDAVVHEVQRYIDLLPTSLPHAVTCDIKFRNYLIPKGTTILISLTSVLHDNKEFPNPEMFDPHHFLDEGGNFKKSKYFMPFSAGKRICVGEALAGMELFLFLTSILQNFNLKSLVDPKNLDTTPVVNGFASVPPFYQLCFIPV

MDA-MB-468 [13] = experiment: Antitumor activity against human MDA-MB-468 cells xenografted in mouse assessed as tumor growth inhibition at 37.5 mg/kg, po qd for 21 days measured on day 21 post last dose relative to vehicle control; assay type: functional; details: MDA-MB-468, po, 504 h, read-out: TGI
Aurora kinase A = target: T3, Aurora kinase A (Homo sapiens, UniProt O14965); experiment: Inhibition of AURKA (unknown origin)
T3 sequence (O14965 whole entry): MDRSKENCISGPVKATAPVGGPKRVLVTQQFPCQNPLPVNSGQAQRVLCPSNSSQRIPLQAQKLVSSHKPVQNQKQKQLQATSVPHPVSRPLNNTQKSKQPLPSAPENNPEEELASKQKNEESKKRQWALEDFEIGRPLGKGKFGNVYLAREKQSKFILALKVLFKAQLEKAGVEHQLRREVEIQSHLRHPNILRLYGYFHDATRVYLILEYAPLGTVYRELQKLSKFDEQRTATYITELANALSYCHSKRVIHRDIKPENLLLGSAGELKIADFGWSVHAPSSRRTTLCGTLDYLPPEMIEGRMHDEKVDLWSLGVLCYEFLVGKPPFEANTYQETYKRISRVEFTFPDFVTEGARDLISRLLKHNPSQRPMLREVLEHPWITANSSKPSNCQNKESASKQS

Aurora kinase B = Aurora kinase B (Homo sapiens, UniProt Q96GD4); experiment: Inhibition of AURKB (unknown origin)
Sequence of Aurora kinase B (Q96GD4 whole entry): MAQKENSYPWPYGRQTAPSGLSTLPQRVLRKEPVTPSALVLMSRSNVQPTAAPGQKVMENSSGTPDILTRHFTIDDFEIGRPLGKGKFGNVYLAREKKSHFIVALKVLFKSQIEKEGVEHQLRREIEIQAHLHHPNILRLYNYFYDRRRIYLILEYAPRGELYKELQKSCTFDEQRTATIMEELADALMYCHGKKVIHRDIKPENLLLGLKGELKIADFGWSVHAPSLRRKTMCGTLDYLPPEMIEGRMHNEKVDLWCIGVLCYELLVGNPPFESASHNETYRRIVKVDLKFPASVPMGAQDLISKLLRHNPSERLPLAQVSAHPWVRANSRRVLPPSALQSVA

[14] = AUC in mouse at 25 mg/kg, po; assay type: ADME, organism-based; details: in vivo
[15] = Oral bioavailability in rat at 5 mg/kg; assay type: ADME, organism-based; details: in vivo
[16] = Cmax in mouse at 25 mg/kg, po; assay type: ADME, organism-based; parameters: dose 25 mg/kg, route oral; details: in vivo, read-out: Cmax
[17] = target: Vascular endothelial growth factor receptor 2 (Homo sapiens, UniProt P35968); experiment: Inhibition of KDR (unknown origin)
Sequence of Vascular endothelial growth factor receptor 2 (P35968 whole entry): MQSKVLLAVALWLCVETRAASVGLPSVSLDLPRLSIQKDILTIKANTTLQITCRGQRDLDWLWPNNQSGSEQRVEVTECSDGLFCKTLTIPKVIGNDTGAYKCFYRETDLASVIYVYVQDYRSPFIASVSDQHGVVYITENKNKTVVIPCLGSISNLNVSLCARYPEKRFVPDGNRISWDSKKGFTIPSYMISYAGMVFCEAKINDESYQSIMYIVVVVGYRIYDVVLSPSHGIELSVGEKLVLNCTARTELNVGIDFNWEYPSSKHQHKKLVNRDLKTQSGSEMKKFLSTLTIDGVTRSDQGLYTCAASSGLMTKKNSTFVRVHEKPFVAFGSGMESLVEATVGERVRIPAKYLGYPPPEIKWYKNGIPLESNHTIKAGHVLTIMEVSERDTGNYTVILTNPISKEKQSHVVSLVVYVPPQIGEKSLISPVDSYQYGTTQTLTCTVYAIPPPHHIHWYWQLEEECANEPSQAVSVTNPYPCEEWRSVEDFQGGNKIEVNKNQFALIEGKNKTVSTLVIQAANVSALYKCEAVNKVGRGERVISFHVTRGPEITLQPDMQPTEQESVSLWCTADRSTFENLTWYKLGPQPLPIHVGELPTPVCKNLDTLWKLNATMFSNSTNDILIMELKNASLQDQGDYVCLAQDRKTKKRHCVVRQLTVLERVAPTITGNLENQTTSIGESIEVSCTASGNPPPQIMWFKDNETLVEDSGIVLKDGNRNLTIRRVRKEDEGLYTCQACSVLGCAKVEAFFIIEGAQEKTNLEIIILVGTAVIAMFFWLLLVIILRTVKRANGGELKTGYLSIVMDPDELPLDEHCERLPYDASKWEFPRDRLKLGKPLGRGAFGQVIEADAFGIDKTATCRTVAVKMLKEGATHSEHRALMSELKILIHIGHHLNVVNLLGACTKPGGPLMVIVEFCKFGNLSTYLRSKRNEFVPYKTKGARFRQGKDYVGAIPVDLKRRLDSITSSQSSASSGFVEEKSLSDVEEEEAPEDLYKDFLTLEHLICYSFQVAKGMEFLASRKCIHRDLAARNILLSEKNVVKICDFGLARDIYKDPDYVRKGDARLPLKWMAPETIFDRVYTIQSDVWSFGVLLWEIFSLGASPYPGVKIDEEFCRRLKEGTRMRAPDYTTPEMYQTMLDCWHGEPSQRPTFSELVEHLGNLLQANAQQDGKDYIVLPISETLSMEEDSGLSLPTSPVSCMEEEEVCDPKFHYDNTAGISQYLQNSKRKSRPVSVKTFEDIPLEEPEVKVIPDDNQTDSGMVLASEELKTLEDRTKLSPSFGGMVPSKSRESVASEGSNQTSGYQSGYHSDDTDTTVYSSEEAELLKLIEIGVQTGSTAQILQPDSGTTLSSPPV

GI50 (HCC1954) [nM]	GI50 (MCF7) [nM]	logD [1]	IC50 [2] [nM]	GI50 (MDA-MB-468 [3]) [nM]	IC50 [5] [nM]	inhibition at 1 µM (CYP3A4) [%]	clearance [6] [mL/min/kg]	half-life [7] [min]	inhibition at 1 µM (CYP2C19) [%]	half-life [8] [min]	half-life [9] [min]	AUC [10] [ng·h/mL]	AUC [11] [ng·h/mL]	inhibition at 1 µM (CYP2C9) [%]	IC50 (Aurora kinase A) [nM]	IC50 (Aurora kinase B) [nM]	AUC [14] [ng·h/mL]	bioavailability [15] [%]	Cmax [16] [ng/mL]	SMILES	further results
1420	150	4	200	220	1.5	–	–	–	–	–	–	–	–	–	–	–	–	–	–	COc1ccc2c(c1)[C@]1(C[C@H]1c1ccc3c(-c4ccc(C5(F)CCN(C)CC5)cc4)n[nH]c3c1)C(=O)N2	pKa [4]: 7.7
240	6.3	4.8	62	31	1.6	6	55	15	60	96	> 60	310	310	37	> 1000	8.5	3000	11	1100	CCN1CCN(c2ccc(-c3n[nH]c4cc([C@@H]5C[C@@]56C(=O)Nc5ccc(OC)cc56)ccc34)cc2)CC1	Activity [12]: < 20%; inhibition in vivo at 37.5 mg/kg (MDA-MB-468 [13]): 48%
1400	1	4	45	15	0.94	3	68.3	9	33	78	19	270	260	35	> 1000	6.9	1830	22	710	COc1ccc2c(c1)[C@]1(C[C@H]1c1ccc3c(-c4ccc(N5CCN(C)CC5)cc4)n[nH]c3c1)C(=O)N2	Activity [12]: < 20%; IC50 [17]: 9400 nM; inhibition in vivo at 37.5 mg/kg (MDA-MB-468 [13]): 96%
3300	100	3.3	97	–	0.69	6	63.3	8	30	96	20	270	140	34	> 1000	10	140	10	71	COc1ccc2c(c1)[C@]1(C[C@H]1c1ccc3c(-c4ccc(N5CCN(C)CC5)nc4)n[nH]c3c1)C(=O)N2	IC50 [17]: 14000 nM
